Measurements reported in ChEMBL document CHEMBL6083283, “Discovery of Dual CDK6/BRD4 Inhibitor Inducing Apoptosis and Increasing the Sensitivity of Ferroptosis in Triple-Negative Breast Cancer” (J Med Chem, 2024).

Experiments:
[1] = target: T1, Bromodomain-containing protein 2 (Homo sapiens, UniProt P25440)
Description: Inhibition of BRD2 BD2 (unknown origin)

[2] = target: CDK6/cyclin D3 (Homo sapiens, UniProt Q00534); experiment: Inhibition of full length recombinant human CDK6/CyclinD3 co-expressed by baculovirus in Sf9 insect cells using histone H1 as substrate by ADP-glo kinase assay
[3] = target: CDK9/cyclin T1 (Homo sapiens) (UniProt O60563+P50750); conditions: dose 500.0 nM
Description: Inhibition of CDK9/cyclinT1 (unknown origin) at 500 nM relative to control

[4] = target: T1, Bromodomain-containing protein 2; remark: listed apart in the source
Description: Inhibition of BRD2 BD1 (unknown origin)

[5] = tested on: MDA-MB-231; experiment: Antitumor activity against human MDA-MB-231 cells xenografted in BALB/c nude mouse assessed as tumor growth inhibition at 50 mg/kg, ip administered for 21 days; conditions: MDA-MB-231, 504 h, read-out: TGI
[6] = in vitro; conditions: human, MCF-10A cells
Description: Antiproliferative activity against human MCF-10A cells assessed as cell viability incubated for 72 hrs by MTT assay

[7] = tested on: MDA-MB-231; experiment: cells; conditions: Homo sapiens, MDA-MB-231, 72 h
Description: Antiproliferative activity against human MDA-MB-231 cells assessed as cell viability incubated for 72 hrs by MTT assay

[8] = tested on: BT-549; experiment: cells; conditions: Homo sapiens, BT-549, 72 h
Description: Antiproliferative activity against human BT-549 cells assessed as cell viability incubated for 72 hrs by MTT assay

[9] = Antiproliferative activity against human MCF-10A cells assessed as cell viability incubated for 72 hrs in presence of Palbociclib by MTT assay; assay type: toxicity, cell-based
[10] = tested on: BT-549; experiment: Antiproliferative activity against human BT-549 cells assessed as cell viability incubated for 72 hrs in presence of Palbociclib by MTT assay; assay type: functional, cell-based; conditions: BT-549, 72 h
[11] = tested on: MDA-MB-231; experiment: Antiproliferative activity against human MDA-MB-231 cells assessed as cell viability incubated for 72 hrs in presence of Palbociclib by MTT assay; assay type: functional, cell-based; conditions: MDA-MB-231, 72 h
[12] = in vitro; conditions: human, liver microsomes
Description: Metabolic stability in human liver microsome assessed as intrinsic clearance

[13] = in vitro; conditions: human, liver microsomes; remark: listed apart in the source

Sequence of CDK6/cyclin D3 (P30281 whole entry): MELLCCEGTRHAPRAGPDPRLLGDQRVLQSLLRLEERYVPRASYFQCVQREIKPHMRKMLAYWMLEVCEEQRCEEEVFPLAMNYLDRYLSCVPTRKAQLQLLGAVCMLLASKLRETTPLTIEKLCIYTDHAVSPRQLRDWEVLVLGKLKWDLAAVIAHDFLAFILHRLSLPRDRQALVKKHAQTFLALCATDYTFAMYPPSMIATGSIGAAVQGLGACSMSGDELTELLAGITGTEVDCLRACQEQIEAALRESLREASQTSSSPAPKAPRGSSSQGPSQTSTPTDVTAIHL
Sequence of CDK6/cyclin D3 (Q00534 whole entry): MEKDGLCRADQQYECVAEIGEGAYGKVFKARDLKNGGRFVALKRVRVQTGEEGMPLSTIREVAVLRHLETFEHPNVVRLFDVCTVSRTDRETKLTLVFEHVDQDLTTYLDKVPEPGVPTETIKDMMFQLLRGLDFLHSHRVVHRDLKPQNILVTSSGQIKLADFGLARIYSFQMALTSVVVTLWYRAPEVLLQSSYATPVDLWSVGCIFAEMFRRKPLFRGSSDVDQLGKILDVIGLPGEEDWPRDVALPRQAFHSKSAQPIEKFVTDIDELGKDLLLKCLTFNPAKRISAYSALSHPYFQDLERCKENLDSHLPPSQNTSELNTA
T1 sequence (P25440 whole entry): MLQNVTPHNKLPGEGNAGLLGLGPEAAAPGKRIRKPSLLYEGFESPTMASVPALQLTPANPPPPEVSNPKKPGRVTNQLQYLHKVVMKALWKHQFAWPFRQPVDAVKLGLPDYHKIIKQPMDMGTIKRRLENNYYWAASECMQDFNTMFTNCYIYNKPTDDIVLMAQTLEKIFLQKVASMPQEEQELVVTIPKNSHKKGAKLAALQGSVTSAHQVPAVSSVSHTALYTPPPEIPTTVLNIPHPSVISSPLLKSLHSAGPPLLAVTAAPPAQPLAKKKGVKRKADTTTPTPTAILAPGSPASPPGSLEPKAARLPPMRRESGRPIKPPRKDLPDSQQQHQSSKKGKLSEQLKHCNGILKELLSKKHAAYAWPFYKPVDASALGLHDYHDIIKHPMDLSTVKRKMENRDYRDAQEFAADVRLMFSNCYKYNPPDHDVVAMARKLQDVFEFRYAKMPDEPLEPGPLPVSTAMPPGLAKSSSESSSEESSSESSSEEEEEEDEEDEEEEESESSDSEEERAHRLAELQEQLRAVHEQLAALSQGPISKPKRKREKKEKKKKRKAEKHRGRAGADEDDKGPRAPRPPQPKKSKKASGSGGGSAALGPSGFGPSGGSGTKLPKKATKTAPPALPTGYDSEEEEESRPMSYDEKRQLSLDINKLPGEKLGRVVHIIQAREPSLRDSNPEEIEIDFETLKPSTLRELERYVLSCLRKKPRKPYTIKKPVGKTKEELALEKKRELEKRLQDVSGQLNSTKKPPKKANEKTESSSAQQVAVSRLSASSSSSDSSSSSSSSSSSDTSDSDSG

| SMILES | IC50 [2] [µM] | inhibition in vivo at 50 mg/kg [5] [%] | IC50 at 72 h [6] [µM] | IC50 [7] [µM] | IC50 [8] [µM] | also measured |
| --- | --- | --- | --- | --- | --- | --- |
| COc1cc(OC)c2c(=O)[nH]c(-c3ccc(C(=O)N4CC5(CCN(c6ncc7c(C)cc(=O)n(C8CCCC8)c7n6)CC5)C4)cc3)nc2c1 | 0.036 |  |  |  |  | IC50 [1]: > 1 µM; inhibition [3]: 43.4%; IC50 [4]: > 1 µM |
| COc1cc(OC)c2c(=O)[nH]c(-c3ccc(C(=O)N4CCCC(CNc5ncc6c(C)cc(=O)n(C7CCCC7)c6n5)C4)cc3)nc2c1 (stereo not drawn) | 0.297 |  |  |  |  |  |
| CC(=O)c1c(C)c2cnc(Nc3ccc(N4CCNCC4)cn3)nc2n(C2CCCC2)c1=O [PALBOCICLIB] |  | 22 | > 20 | 16.3 | 15.3 |  |
| Cc1sc2c(c1C)C(c1ccc(Cl)cc1)=N[C@@H](CC(=O)OC(C)(C)C)c1nnc(C)n1-2 |  | 37.6 | > 20 | 6.44 | 5.06 | IC50 at 72 h [9]: > 20 µM; IC50 [10]: 1.05 µM; IC50 [11]: 1.72 µM; microsomal CLint [12]: 39.5 µL/min/mg; half-life [13]: 35.4 min |
